These results are taken from US12240827B2, “Serotonin 5-HT2B inhibitory compounds” (Zoetis Services LLC, priority 2019, dated 2025).

One may read the IC50 as the concentration that inhibits the measured activity by half.

SMILES strings stand for the structures.

Experiment [1] concerns c5-HT2B. Particulars: literature value; cited from earlier work.
Experiment [2] deals with dogs with Stage B2 MMVD. Particulars: cited from earlier work.
Experiment [3] addresses T1, hERG (Homo sapiens, UniProt Q12809).
T1 construct: stably transfected with full length hERG cDNA; expressed in transfected cells; host or cells: HEK293
In words: hERG in-vitro assay, IonWorks Barracuda population patch clamp. The experiment is classed as cell-based. Particulars: hERG/HEK293 cells; hERG current block, 5 minutes exposure. On the procedure:
Stock solutions of compounds of the invention and positive control (cisapride; 0.001-3 μM) were prepared in DMSO. Stock solutions were diluted in a HEPES-buffered physiological saline solution. Test and control solutions contained 0.3% DMSO. Human hERG/HEK293 renal epithelial cells stably transfected with full length hERG cDNA were cultured in Dulbecco's Modified Eagle Medium/Nutrient Mixture F-12 (D-MEM/F-12) supplemented with 10% fetal bovine serum, 100 U/mL penicillin G sodium, 100 μg/mL streptomycin sulfate and 500 μg/mL G418. Before testing, cells in culture dishes were rinsed with Hank's Balanced Salt Solution (HBSS) and detached with accutase. Immediately before use in the IonWorks Barracuda™ system, the cells were washed with buffered physiological saline solution (HB-PS) buffer to remove the accutase and re-suspended in 5 mL of HB-PS. The test article effects were evaluated using IonWorks Barracuda™ systems (Molecular Devices Corporation, Union City, CA). HEPES-buffered intracellular solution for whole cell recordings was loaded into the intracellular compartment of the Population Patch Clamp™ (PPC) planar electrode.
Extracellular buffer (HB-PS) was loaded into PPC planar electrode plate wells (11 μL/well). The cell suspension was pipetted into the wells of the PPC planar electrode (9 μL/well). After establishment of a whole-cell configuration (the perforated patch), membrane currents were recorded using patch clamp amplifier in the IonWorks Barracuda™ system. The current recordings were performed one (1) time before test article application to the cells (baseline) and one (1) time after application of the test article. Test article concentrations were applied to naïve cells. Each application consisted of addition of 20 μL of 2× concentrated test article solution to the total 40 μL of final volume of the extracellular well of the PPC plate. Duration of exposure to each compound concentration was five (5) minutes. hERG current was elicited using a pulse pattern with fixed amplitudes (the first conditioning pre-pulse to 10 mV for 60 second, the second conditioning pre-pulse: −90 mV for 20 ms; the test pulse: +40 mV for 100 ms) from a holding potential of 0 mV (‘zero holding’ procedure). hERG current was measured as a difference between the peak current at 1 ms and at the end of test step to +40 mV. Data acquisition and analyses were performed using the IonWorks Barracuda™ system operation software (version 2.0.2). The decrease in current amplitude after test article application was used to calculate the percent block relative to control. Results for each test article concentration (n≥1) were averaged; the mean and standard deviation values were calculated and used to generate dose-response curves.
(In general: The hERG channel carries a current that helps repolarise heart muscle cells.)

The target of experiment [4] is T2, canine 5-HT2B receptor (Canis lupus familiaris, UniProt Q50DZ8).
T2 construct: expressed in transfected cells; host or cells: CHO-K1
The experiment is described as follows: Canine 5-HT2B (c5-HT2B) in-vitro assay, FLIPR calcium response. The experiment is classed as cell-based. As to conditions: CHO-K1 cells stably expressing canine 5-HT2B receptor; inhibition of EC80 serotonin calcium response. On the procedure: CHO-K1 cells stably expressing the canine 5-HT2B receptor were seeded at 20,000 cells per well in 20 μl culture media (DMEM with GlutaMAX™ high glucose+5% dialyzed FBS+10 mM HEPES+1×MEM Non-Essential Amino Acids of a 384-well black plate with clear bottom for at least 18 hours at 37° C. and 5% CO2. The cell plate was loaded with 20 μl/well of the FLIPR® Calcium 5 Assay kit prepared in HBSS containing calcium and magnesium supplemented with 20 mM HEPES and 5 mM Probenecid at pH 7.4 and incubated at 37° C. and 5% CO2 for 30 minutes and then an additional 30 minutes at room temperature. The intracellular calcium response was measured using the FLIPR Tetra® instrument measuring the kinetic response of the Calcium 5 dye at an excitation wavelength of 470-495 nm and emission wavelength of 515-575 nm at room temperature. The cells were initially challenged with a 5× concentration of the antagonist (10 μl/well) after an initial baseline recording and the calcium response was recorded for almost 2 minutes. After the completion of the initial antagonist challenge, the cell plate was incubated at room temperature in the FLIPR Tetra® instrument for 10 minutes. Finally, a second kinetic assay was performed after the 10 minute incubation at room temperature to measure the inhibitory response of the EC80 concentration of serotonin (15 μl/well) after an initial baseline recording. The IC50 concentration was determined for each antagonist tested.

T2 sequence (Q50DZ8 1-434): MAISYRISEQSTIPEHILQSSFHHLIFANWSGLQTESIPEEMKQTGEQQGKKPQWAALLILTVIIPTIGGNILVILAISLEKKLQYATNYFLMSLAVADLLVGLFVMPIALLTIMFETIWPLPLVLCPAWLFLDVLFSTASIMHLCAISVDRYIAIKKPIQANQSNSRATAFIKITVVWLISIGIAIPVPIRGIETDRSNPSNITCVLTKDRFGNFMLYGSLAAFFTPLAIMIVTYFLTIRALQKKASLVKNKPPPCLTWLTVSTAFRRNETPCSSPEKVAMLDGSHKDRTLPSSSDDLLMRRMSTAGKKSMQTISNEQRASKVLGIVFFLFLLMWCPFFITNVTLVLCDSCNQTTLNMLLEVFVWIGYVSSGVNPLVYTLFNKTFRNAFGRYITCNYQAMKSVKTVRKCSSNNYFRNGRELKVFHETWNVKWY
T1 sequence (Q12809 whole entry): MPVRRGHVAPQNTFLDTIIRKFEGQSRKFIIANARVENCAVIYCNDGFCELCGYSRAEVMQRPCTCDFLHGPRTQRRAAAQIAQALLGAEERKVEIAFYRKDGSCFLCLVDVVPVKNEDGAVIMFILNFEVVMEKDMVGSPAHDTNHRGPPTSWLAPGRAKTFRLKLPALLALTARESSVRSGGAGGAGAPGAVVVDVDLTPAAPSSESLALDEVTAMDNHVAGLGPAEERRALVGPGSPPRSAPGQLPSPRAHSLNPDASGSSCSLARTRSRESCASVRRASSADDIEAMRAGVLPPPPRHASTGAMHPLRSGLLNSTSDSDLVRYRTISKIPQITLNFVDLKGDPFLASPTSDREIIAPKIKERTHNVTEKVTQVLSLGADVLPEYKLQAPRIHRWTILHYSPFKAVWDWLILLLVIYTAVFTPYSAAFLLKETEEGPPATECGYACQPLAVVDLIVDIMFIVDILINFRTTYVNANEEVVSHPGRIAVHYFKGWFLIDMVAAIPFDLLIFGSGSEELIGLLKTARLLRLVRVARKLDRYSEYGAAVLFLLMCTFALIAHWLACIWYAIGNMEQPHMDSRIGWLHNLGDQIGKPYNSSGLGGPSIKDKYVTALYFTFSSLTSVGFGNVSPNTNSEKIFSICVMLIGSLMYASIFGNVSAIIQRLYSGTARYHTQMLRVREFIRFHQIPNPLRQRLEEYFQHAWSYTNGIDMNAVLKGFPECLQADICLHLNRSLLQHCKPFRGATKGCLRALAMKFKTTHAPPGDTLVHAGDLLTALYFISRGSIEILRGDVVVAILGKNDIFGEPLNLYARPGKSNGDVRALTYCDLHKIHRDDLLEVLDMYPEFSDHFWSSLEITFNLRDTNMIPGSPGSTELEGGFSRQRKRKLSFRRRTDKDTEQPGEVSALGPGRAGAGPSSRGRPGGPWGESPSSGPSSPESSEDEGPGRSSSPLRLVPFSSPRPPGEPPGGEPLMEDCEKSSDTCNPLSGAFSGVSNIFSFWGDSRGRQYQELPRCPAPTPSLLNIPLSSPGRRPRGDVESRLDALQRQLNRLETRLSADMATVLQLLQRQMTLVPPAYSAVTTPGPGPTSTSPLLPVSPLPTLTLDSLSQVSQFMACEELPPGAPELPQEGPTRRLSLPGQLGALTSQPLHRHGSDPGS

Turning to `O=C(c1ccc(-c2ccc(OC(F)(F)F)cc2)cc1)N1CCC(c2nc3ccccc3[nH]2)CC1` [CA-2, (4-(1H-benzo[d]imidazol-2-yl)piperidin-1-yl)(4′-(trifluoromethoxy)-[1,1′-biphenyl]-4-yl)methanone], the concentration for half-maximal inhibition (IC50) in experiment [1] is 95 nM.

With `COc1ccc(-c2nc3ccc(C4=NNC(=O)CC4C)cc3[nH]2)cc1` (stereo not drawn) [pimobendan], the “time longer to develop CHF or die from MMVD than dogs receiving placebo” value in experiment [2] (pimobendan 0.2 or 0.3 mg/kg twice a day) is 462 days. Besides, the “delay in prolonging preclinical stage” value in experiment [2] (versus placebo) is given as 60%.

Take `O=C(c1ccc(-c2ccc(F)cc2)cc1)N1CCC(Nc2ncc[nH]2)CC1` [Example 1, (4-((1H-imidazol-2-yl)amino)piperidin-1-yl)(4′-fluoro-[1,1′-biphenyl]-4-yl)methanone]: the figures for the IC50 in experiment [3] and in experiment [4] were 1540 nM and 2 nM, respectively.

On to `O=C(c1ccc(-c2cccc3[nH]ccc23)cc1)N1CCC(c2ncc[nH]2)CC1` [Example 17, (4-(1H-imidazol-2-yl)piperidin-1-yl)(4-(1H-indol-4-yl)phenyl)methanone], for which the IC50 in experiment [3] came out at 5870 nM; in experiment [4], 0.04 nM.

With `O=C(c1ccc(-c2cccc3c2OCO3)cc1)N1CCC(c2ncc[nH]2)CC1` [Example 20, (4-(1H-imidazol-2-yl)piperidin-1-yl)(4-(benzo[d][1,3]dioxol-4-yl)phenyl)methanone], the IC50 in experiment [3] amounted to 3390 nM; in experiment [4], 0.01 nM.

For the compound `O=C(c1ccc(-c2ccc(C(F)(F)F)cc2)cc1)N1CCC(Cc2ncc[nH]2)CC1` [Example 12, (4-((1H-imidazol-2-yl)methyl)piperidin-1-yl)(4′-(trifluoromethyl)-[1,1′-biphenyl]-4-yl)methanone], the IC50 in experiment [3] amounted to 4840 nM; in experiment [4], 63.9 nM.

As to `O=C(c1ccc2c(ccn2-c2ccccc2)c1)N1CCC(c2ncc[nH]2)CC1` [Example 21, (4-(1H-imidazol-2-yl)piperidin-1-yl)(1-phenyl-1H-indol-5-yl)methanone], the results for the IC50 in experiment [3] and in experiment [4] were 4310 nM and 3.1 nM, respectively.

For `Cc1c[nH]c(C2CCN(C(=O)c3ccc(-c4c(C)[nH]c5ccccc45)cc3)CC2)n1` [Example 26, (4-(4-methyl-1H-imidazol-2-yl)piperidin-1-yl)(4-(2-methyl-1H-indol-3-yl)phenyl)methanone], the values for the IC50 in experiment [3] and in experiment [4] were 13100 nM and 0.84 nM, respectively.

For `O=C(c1ccc(-c2cc3ccccc3[nH]2)cc1)N1CCC(c2ncc[nH]2)CC1` [Example 30, (4-(1H-imidazol-2-yl)piperidin-1-yl)(4-(1H-indol-2-yl)phenyl)methanone], the IC50 amounted to 11000 nM in experiment [3] and 1.95 nM in experiment [4].

Regarding `O=C(c1ccc(-c2ccc(C(F)(F)F)s2)cc1)N1CCC(c2ncc[nH]2)CC1` [Example 22, (4-(1H-imidazol-2-yl)piperidin-1-yl)(4-(5-(trifluoromethyl)thiophen-2-yl)phenyl)methanone], the IC50 in experiment [3] came to 2800 nM; in experiment [4] it was 20.5 nM.

Consider `Cc1cnc(C2CCN(C(=O)c3ccc(-c4ccc(C(F)(F)F)cc4)cc3)CC2)[nH]1` [Example 4, (4-(5-methyl-1H-imidazol-2-yl)piperidin-1-yl)(4′-(trifluoromethyl)-[1,1′-biphenyl]-4-yl)methanone], for which the 50% inhibitory concentration (IC50) in experiment [3] is 1130 nM; in experiment [4], 21.9 nM.

On to `O=C(c1ccc(-c2ccc(C(F)F)cc2)cc1)N1CCC(Nc2ncc[nH]2)CC1` [Example 33, (4-((1H-imidazol-2-yl)amino)piperidin-1-yl)(4′-(difluoromethyl)-[1,1′-biphenyl]-4-yl)methanone], for which the IC50 in experiment [3] came to 5290 nM; in experiment [4], 18.6 nM.

Regarding `O=C(c1ccc2c(c1)[nH]c1ccccc12)N1CCC(c2ncc[nH]2)CC1` [Example 14, (4-(1H-imidazol-2-yl)piperidin-1-yl)(9H-carbazol-2-yl)methanone], the IC50 in experiment [3] stood at 5720 nM; in experiment [4] it was 1.3 nM.

Turning to `O=C(c1ccc(-c2cccc(Cl)c2)cc1)N1CCC(c2ncc[nH]2)CC1` [Example 10, (4-(1H-imidazol-2-yl)piperidin-1-yl)(3′-chloro-[1,1′-biphenyl]-4-yl)methanone], the concentration for half-maximal inhibition (IC50) stood at 2770 nM in experiment [3] and 0.51 nM in experiment [4].

Turning to `Cc1cnc(C2CCN(C(=O)c3ccc4c(-c5ccccc5)c[nH]c4c3)CC2)[nH]1` [Example 31, (4-(5-methyl-1H-imidazol-2-yl)piperidin-1-yl)(3-phenyl-1H-indol-6-yl)methanone], the IC50 in experiment [3] is 19600 nM; in experiment [4], 4.5 nM.

For `O=C(c1ccc(-c2ccc(C(F)F)cc2)cc1)N1CCC(Cc2ncc[nH]2)CC1` [Example 25, (4-((1H-imidazol-2-yl)methyl)piperidin-1-yl)(4′-(difluoromethyl)-[1,1′-biphenyl]-4-yl)methanone], the results for the IC50 in experiment [3] and in experiment [4] were 3400 nM and 0.46 nM, respectively.

With `O=C(c1ccc(-c2ccc(F)cc2)cc1)N1CCC(Cc2ncc[nH]2)CC1` [CA-1, (4-((1H-imidazol-2-yl)methyl)piperidin-1-yl)(4′-fluoro-[1,1′-biphenyl]-4-yl)methanone, reference compound], the IC50 stood at 546 nM in experiment [3] and 0.3 nM in experiment [4].
